A short description of the series: Case study: subjects taking capsules of the exemplary composition with exercise and low-fat diet; total cholesterol, triglycerides, LDL, HDL tracked. Format: in vivo, humans. The settings on record: in two of the subjects; removed from the formulation. The text has this:
An initial study included 34 subjects. The subjects were advised to exercise and follow a strict low-fat diet, in addition to consuming doses of the exemplary composition. The subjects were tracked from 8 to 24 months.
It is contemplated within the scope of the invention to provide alternate formulations which eliminate nicotinic acid for use by those persons who cannot tolerate it.

For the compound `O=C(O)c1cccnc1` [nicotinic acid], the “tolerability of nicotinic acid in the formulation” value is recorded as “not tolerated”.

(Values after US20070116713A1, “Compositions and methods for reducing or controlling blood cholesterol, lipoproteins, triglycerides and atherosclerosis” (priority 2005, published 2007).)
